According to US20230346760A1, “AGENTS TO PREVENT TISSUE DAMAGE FROM CLOSTRIDIUM DIFFICILE INFECTIONS BY INHIBITION OF THE GUT-DAMAGING BACTERIAL TOXINS TCDA AND TCDB” (ALBERT EINSTEIN COLLEGE OF MEDICINE, priority 2020, published 2023):
“Also recorded” adds a separate entry of the source. Like-named read-outs stand apart in the source and are kept apart here.

Experiments:
[1] = target: TcdB (Clostridioides difficile, UniProt P18177); experiment: Kinetic inhibition of TcdB glucosyltransferase / UDP-glucose hydrolysis; type: biochemical, Clostridium difficile
[2] = target: T1, TcdB-GTD (Clostridioides difficile, UniProt P18177); type: binding, Clostridium difficile
T1 construct: (50 mM HEPES pH 7.5, 100 mM KCl, 4 mM MgCl2, 1 mM MnCl2) and 40 μM TcdB-GTD

[3] = target: T2, TcdA (Clostridioides difficile, UniProt P16154); experiment: biochemical; type: binding, Clostridium difficile
[4] = tested on: TcdB induced cell rounding of CHO-K1 cells; type: cell-based
[5] = tested on: TcdA induced rounding of CHO-K1 cells; type: cell-based
[6] = tested on: Rac1 glucosylation by TcdA in IMR90 cells; type: cell-based
[7] = tested on: Rac1 glucosylation by TcdB in IMR90 cells; type: cell-based
[8] = tested on: TcdA induced apoptosis in HT-29 cells; type: cell-based
[9] = target: T2, TcdA; type: biochemical, Clostridium difficile

TcdB, sequence (P18177 1-543 limits assumed): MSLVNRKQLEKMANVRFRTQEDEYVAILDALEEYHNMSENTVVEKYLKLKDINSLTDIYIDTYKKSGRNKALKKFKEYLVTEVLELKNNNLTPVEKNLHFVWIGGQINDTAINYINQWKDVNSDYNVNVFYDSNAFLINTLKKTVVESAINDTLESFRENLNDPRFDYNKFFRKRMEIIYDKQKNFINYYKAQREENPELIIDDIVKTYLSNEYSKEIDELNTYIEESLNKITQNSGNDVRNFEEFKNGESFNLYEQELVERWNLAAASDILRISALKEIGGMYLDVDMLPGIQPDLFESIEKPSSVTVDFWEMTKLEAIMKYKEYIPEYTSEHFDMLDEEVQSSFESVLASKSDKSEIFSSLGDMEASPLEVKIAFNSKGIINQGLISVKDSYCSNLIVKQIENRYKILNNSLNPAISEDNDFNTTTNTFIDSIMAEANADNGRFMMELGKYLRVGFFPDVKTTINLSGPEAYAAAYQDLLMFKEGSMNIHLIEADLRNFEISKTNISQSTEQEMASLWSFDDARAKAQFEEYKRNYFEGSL
T1 sequence (P18177 2-543 limits assumed): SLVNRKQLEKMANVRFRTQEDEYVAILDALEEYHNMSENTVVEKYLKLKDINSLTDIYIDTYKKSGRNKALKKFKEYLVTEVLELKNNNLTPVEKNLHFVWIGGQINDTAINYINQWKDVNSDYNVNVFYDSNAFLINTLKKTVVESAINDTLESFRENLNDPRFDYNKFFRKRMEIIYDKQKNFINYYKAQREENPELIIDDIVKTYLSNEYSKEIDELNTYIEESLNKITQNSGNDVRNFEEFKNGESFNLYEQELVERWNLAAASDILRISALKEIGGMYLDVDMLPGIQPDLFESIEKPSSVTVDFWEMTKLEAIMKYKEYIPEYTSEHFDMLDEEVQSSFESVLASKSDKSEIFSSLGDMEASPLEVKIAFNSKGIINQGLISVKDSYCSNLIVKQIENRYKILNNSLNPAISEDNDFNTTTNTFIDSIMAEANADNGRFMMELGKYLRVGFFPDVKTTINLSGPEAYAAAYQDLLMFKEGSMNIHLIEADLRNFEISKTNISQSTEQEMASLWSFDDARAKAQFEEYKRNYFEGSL
T2 sequence (P16154 whole entry, looked up): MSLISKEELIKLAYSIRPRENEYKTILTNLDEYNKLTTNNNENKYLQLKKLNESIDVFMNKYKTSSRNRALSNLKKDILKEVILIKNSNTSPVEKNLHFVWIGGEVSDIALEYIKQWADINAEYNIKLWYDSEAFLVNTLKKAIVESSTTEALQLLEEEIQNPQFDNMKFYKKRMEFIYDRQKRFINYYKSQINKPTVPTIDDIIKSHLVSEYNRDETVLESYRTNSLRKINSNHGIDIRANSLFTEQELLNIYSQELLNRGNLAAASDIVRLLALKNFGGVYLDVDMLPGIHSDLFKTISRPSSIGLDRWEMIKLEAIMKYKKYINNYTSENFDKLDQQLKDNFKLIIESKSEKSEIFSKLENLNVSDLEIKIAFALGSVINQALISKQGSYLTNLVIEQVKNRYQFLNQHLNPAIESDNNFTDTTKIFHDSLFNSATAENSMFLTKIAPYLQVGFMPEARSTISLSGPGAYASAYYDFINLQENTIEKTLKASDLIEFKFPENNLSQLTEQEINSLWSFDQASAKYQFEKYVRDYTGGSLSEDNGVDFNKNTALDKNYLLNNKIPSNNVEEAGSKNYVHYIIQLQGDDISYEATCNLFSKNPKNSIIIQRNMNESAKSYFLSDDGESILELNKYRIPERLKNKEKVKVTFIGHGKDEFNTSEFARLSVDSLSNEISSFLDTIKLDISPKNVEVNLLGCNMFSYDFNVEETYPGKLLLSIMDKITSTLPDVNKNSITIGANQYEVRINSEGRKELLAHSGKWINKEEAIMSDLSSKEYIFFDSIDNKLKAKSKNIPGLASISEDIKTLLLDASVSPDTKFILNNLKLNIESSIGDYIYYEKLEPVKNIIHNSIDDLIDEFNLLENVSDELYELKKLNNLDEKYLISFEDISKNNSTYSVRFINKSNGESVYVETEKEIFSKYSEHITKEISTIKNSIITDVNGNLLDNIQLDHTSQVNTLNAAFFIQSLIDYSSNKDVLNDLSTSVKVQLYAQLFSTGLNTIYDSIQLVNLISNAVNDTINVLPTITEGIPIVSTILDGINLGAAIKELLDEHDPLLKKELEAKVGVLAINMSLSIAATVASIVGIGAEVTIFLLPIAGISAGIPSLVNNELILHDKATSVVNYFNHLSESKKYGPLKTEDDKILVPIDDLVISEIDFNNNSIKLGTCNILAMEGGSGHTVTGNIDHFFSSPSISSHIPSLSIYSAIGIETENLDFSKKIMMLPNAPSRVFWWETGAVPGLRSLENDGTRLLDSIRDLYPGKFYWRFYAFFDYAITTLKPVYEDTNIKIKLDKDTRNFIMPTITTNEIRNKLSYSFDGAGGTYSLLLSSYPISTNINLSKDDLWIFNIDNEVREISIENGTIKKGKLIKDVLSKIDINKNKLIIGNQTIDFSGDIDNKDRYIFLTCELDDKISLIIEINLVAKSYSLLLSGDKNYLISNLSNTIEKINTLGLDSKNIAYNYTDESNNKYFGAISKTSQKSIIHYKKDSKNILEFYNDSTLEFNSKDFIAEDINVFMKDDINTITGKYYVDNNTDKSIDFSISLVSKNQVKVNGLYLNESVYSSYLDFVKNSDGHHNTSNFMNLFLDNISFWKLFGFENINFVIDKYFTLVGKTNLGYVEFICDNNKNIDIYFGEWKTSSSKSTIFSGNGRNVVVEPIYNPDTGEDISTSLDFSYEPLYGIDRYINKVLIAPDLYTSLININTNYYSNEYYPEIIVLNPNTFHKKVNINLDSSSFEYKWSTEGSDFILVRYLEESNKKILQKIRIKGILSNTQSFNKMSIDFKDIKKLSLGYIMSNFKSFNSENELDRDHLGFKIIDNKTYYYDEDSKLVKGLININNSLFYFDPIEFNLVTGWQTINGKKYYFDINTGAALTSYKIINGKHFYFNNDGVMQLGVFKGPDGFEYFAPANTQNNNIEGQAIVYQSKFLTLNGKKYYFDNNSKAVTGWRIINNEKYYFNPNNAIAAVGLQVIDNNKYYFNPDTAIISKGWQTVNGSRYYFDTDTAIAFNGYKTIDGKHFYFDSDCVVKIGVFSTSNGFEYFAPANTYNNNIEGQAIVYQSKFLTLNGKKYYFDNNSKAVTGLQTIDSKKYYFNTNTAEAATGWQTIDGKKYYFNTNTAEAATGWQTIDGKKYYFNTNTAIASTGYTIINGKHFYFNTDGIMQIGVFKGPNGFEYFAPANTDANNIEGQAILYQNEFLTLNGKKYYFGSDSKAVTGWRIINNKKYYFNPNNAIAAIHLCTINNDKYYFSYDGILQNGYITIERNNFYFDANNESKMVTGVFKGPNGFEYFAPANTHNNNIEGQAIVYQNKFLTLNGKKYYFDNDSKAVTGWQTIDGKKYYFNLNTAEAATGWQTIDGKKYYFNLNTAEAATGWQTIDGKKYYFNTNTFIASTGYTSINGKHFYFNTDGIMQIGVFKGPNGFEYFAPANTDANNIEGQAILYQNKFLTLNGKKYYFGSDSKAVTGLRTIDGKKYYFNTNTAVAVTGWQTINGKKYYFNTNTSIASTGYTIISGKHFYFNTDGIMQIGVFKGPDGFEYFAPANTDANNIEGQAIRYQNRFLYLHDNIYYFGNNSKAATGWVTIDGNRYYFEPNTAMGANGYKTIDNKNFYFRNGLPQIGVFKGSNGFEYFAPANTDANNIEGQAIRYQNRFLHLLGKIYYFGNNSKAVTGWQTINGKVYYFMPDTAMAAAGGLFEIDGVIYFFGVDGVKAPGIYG

| SMILES | inhibition of Tcds (in words) [1] | Ki ([1]; in the presence of 2×Ki for UDP, read-out: kinetic Ki (apparent Ki)) [nM] | increase of affinity ([1]; when UDP is present at 2×Ki) [fold] | mechanism of inhibition ([1]; with respect to UDP-glucose) | ITC binding [2] | Kd [2] [nM] | N [2] | ΔG [2] [kcal/mol] | ΔH [2] [kcal/mol] | −TΔS [2] [kcal/mol] | Kd [3] [nM] | protection from cell rounding [4] | protection from cell rounding [5] | un-glucosylated Rac1 (Mab102) compared to total Rac1 [6] | un-glucosylated Rac1 (Mab102) compared to total Rac1 [7] | apoptosis (Annexin V signal) [8] | Ki ([1]; TcdB-UDP, read-out: Ki) [nM] | Ki [9] [nM] |
| --- | --- | --- | --- | --- | --- | --- | --- | --- | --- | --- | --- | --- | --- | --- | --- | --- | --- | --- |
| O=C1O[C@H](CO)[C@@H](O)[C@H](O)[C@H]1O [Gluconolactone, reference compound] | poor inhibitor | – | – | – | – | – | – | – | – | – | – | – | – | – | – | – | – | – |
| OC[C@H]1CNC[C@@H](O)[C@@H]1O [Isofagomine, (3R,4R,5R)-5-(hydroxymethyl)-3,4-piperidinediol] | – | 290 | 3 | uncompetitive | no binding | 66.9 ± 19.7 | 0.5±0.01 | -9.8 ± 0.3 | -10.3 ± 0.1 | 0.5 ± 0.2 | 7 | sufficient to protect CHO-K1 cells from rounding; also recorded: prevent rounding | prevent rounding | dose-dependent maintenance of un-glucosylated Rac1 | dose-dependent maintenance of un-glucosylated Rac1 | prevented apoptosis | – | – |
| OC[C@H]1CNC(O)[C@@H](O)[C@@H]1O (stereo partly shown) [Noeuromycin, noeuromycin] | – | – | – | – | – | 180 ± 69.7 | 1.2±0.1 | -9.3 ± 0.3 | -5.2 ± 0.1 | – | – | prevent rounding | prevent rounding | dose-dependent maintenance of un-glucosylated Rac1 | dose-dependent maintenance of un-glucosylated Rac1 | prevented apoptosis | 4000 | 200 |
| OC[C@H]1NC[C@H](O)[C@@H](O)[C@@H]1O [deoxynorjirimycin, reference compound] | poor inhibition | – | – | – | – | – | – | – | – | – | – | – | – | – | – | – | – | – |
